Laboratory results taken from patent publication US20240125803A1, “NOVEL DIAGNOSTIC AND METHOD OF SCREENING THERAPEUTICS FOR FIBROTIC CONDITIONS” (BLR-Bio, LLC, priority 2022, published 2024).

Legend:
[1] = test system: fibrosis-related gene expression; assay: Bleomycin-induced skin fibrosis, 21 days: bulk RNAseq of skin; format: in vivo, C57BL/6J mice; settings: d21, n=2
Procedure: 6-week-old C57BL/6J mice were subjected to bleomycin treatment (subcutaneous injection 0.1 U/100 μl/mouse daily) in the presence or absence of BLR200 (intraperitoneal injection 10 μg/kg every other day) for 21 days. For a reversal of fibrosis experiment, BLR200 treatment was started at d14 of bleomycin treatment and continued until d28. Fibrosis was assessed by histological, and unbiased bulk RNAseq, real-time polymerase chain reaction and spatial transcriptomic analyses.
Unbiased cluster analysis of bulk RNAseq data was performed using the Database for Annotation, Visualization and Integrated Discovery (DAVID). Clusters relate to fibrosis with the enrichment score and #of genes greater than 1.0 and 10, respectively, were chosen. n=2.

CCN2 = biological target: T1, CCN2 (Mus musculus, UniProt P29268); settings: Makino et al., 2017; cited from earlier work
T1 construct: FG-3019 treatment mitigated Ang II-induced fibrosis, as visualized by a reduction in skin thickness; host or cells: animals of the Ang II-induced dermal fibrosis model (endogenous protein)
T1 sequence (P29268 26-348): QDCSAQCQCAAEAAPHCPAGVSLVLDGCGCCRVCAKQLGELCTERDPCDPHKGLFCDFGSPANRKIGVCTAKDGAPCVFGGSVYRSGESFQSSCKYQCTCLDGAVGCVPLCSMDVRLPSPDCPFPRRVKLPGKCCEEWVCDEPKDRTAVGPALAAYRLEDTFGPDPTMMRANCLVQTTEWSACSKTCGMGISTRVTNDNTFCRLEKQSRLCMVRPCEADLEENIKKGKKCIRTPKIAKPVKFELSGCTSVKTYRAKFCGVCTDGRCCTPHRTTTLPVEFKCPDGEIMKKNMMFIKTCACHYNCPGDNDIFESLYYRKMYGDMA

[2] = test system: fibrosis in diabetic nephropathy; settings: Riser et al., 2014; cited from earlier work

With Bleomycin sulfate the “Fold Chance, ADAM10” value [1] was 3.68 Fold, the “Fold Chance, ADAMTS4” value [1] was 4.29 Fold and the “Fold Chance, ADAMTS9” value [1] was 4.46 Fold. For the same molecule, the “Fold Chance, ADAMTS20” value [1] was 11.3 Fold, the “Fold Chance, CDH11” value [1] was 11.3 Fold and the “Fold Chance, CITED2” value [1] was 6.43 Fold. The “Fold Chance, ELK1” value [1] was 3.69 Fold, the “Fold Chance, FN1” value [1] was 5.12 Fold and the “Fold Chance, FZD6” value [1] was 22.4 Fold. The “Fold Chance, ITGA6” value [1] was 4.46 Fold, the “Fold Chance, ITGAE” value [1] was 3.68 Fold and the “Fold Chance, PECAM1” value [1] was 4.29 Fold. For the same molecule, the “Fold Chance, SMAD3” value [1] was 3.07 Fold, the “Fold Chance, TNC” value [1] was 3.13 Fold and the “Fold Chance, WNT4” value [1] was 3.07 Fold. For the same molecule, the “Fold Chance, WNT7a” value [1] was 5.81 Fold and the “Fold Chance, YAP1 (Yes-associated protein 1)” value [1] was 8.61 Fold.

In the case of “FG-3019: monoclonal antibody targeting CCN2”, the “Ang II-induced fibrosis (skin thickness, collagen deposition, number of αSMA-expressing myofibroblasts)” value (CCN2) is given as “mitigated”.

B1: rhCCN3: recombinant human CCN3 (protein, UniProt P48745 32-357, looked up)
CCN family member 3: TQRCPPQCPGRCPATPPTCAPGVRAVLDGCSCCLVCARQRGESCSDLEPCDESSGLYCDRSADPSNQTGICTAVEGDNCVFDGVIYRSGEKFQPSCKFQCTCRDGQIGCVPRCQLDVLLPEPNCPAPRKVEVPGECCEKWICGPDEEDSLGGLTLAAYRPEATLGVEVSDSSVNCIEQTTEWTACSKSCGMGFSTRVTNRNRQCEMLKQTRLCMVRPCEQEPEQPTDKKGKKCLRTKKSLKAIHLQFKNCTSLHTYKPRFCGVCSDGRCCTPHNTKTIQAEFQCSPGQIVKKPVMVIGTCTCHTNCPKNNEAFLQELELKTTRGKM
In the case of B1, the “fibrosis in a mouse model of diabetic nephropathy” value [2] is listed as “block and reverse fibrosis”.
